Measured values as given in ChEMBL document CHEMBL2424636, “Synthesis and anticancer activity evaluation of new 1,2,3-triazole-4-carboxamide derivatives” (2013).

What was measured:
Format in all cases: functional
MCF7 = assay: Cytotoxicity against human MCF7 cells assessed as cell growth at 10^-5 M after 48 hrs by SRB assay; settings: MCF7, 48 h, read-out: Activity
A498 = assay: Cytotoxicity against human A498 cells assessed as cell growth at 10^-5 M after 48 hrs by SRB assay; settings: A498, 48 h, read-out: Activity
RPMI-8226 = assay: Cytotoxicity against human RPMI8226 cells assessed as cell growth at 10^-5 M after 48 hrs by SRB assay; settings: RPMI-8226, 48 h, read-out: Activity
NCI-H522 = assay: Cytotoxicity against human NCI-H522 cells assessed as cell growth at 10^-5 M after 48 hrs by SRB assay; settings: NCI-H522, 48 h, read-out: Activity
HOP-92 [1] = assay: Cytotoxicity against human HOP92 cells assessed as cell growth at 10^-5 M after 48 hrs by SRB assay; settings: HOP-92, 48 h, read-out: Activity
K562 [2] = assay: Cytotoxicity against human K562 cells assessed as cell growth at 10^-5 M after 48 hrs by SRB assay; settings: K562, 48 h, read-out: Activity
HL-60(TB) = assay: Cytotoxicity against human HL-60(TB) cells assessed as cell growth at 10^-5 M after 48 hrs by SRB assay; settings: HL-60, 48 h, read-out: Activity
MDA-MB-468 = assay: Cytotoxicity against human MDA-MB-468 cells assessed as cell growth at 10^-5 M after 48 hrs by SRB assay; settings: MDA-MB-468, 48 h, read-out: Activity
UO-31 = assay: Cytotoxicity against human UO31 cells assessed as cell growth at 10^-5 M after 48 hrs by SRB assay; settings: UO-31, 48 h, read-out: Activity
UACC-62 = assay: Cytotoxicity against human UACC62 cells assessed as cell growth at 10^-5 M after 48 hrs by SRB assay; settings: UACC-62, 48 h, read-out: Activity
PC-3 = assay: Cytotoxicity against human PC3 cells assessed as cell growth at 10^-5 M after 48 hrs by SRB assay; settings: PC-3, 48 h, read-out: Activity
HOP-62 = assay: Cytotoxicity against human HOP62 cells assessed as cell growth at 10^-5 M after 48 hrs by SRB assay; settings: HOP-62, 48 h, read-out: Activity
SR [3] = assay: Cytotoxicity against human SR cells assessed as cell growth at 10^-5 M after 48 hrs by SRB assay; settings: read-out: Activity
OVCAR-8 = assay: Cytotoxicity against human OVCAR8 cells assessed as cell growth at 10^-5 M after 48 hrs by SRB assay; settings: OVCAR-8, 48 h, read-out: Activity
U-251 [4] = assay: Cytotoxicity against human U251 cells assessed as cell growth at 10^-5 M after 48 hrs by SRB assay; settings: U-251, 48 h, read-out: Activity
SNB-75 [5] = assay: Cytotoxicity against human SNB75 cells assessed as cell growth at 10^-5 M after 48 hrs by SRB assay; settings: SNB-75, 48 h, read-out: Activity
SF-268 [6] = assay: Cytotoxicity against human SF268 cells assessed as cell growth at 10^-5 M after 48 hrs by SRB assay; settings: SF-268, 48 h, read-out: Activity
[7] = Cytotoxicity against human EKVX cells assessed as cell growth at 10^-5 M after 48 hrs by SRB assay; settings: read-out: Activity
CCRF-CEM = assay: Cytotoxicity against human CCRF-CEM cells assessed as cell growth at 10^-5 M after 48 hrs by SRB assay; settings: read-out: Activity
T47D = assay: Cytotoxicity against human T47D cells assessed as cell growth at 10^-5 M after 48 hrs by SRB assay; settings: read-out: Activity
SK-MEL-5 = assay: Cytotoxicity against human SK-MEL-5 cells assessed as cell growth at 10^-5 M after 48 hrs by SRB assay; settings: SK-MEL-5, 48 h, read-out: Activity
MOLT-4 = assay: Cytotoxicity against human MOLT4 cells assessed as cell growth at 10^-5 M after 48 hrs by SRB assay; settings: MOLT-4, 48 h, read-out: Activity
MDA-MB-231 = assay: Cytotoxicity against human MDA-MB-231/ATCC cells after 48 hrs by SRB assay; settings: MDA-MB-231, 48 h; for TGI: read-out: pTGI
Hs-578T = assay: Cytotoxicity against human Hs578T cells after 48 hrs by SRB assay
TK-10 = assay: Cytotoxicity against human TK10 cells after 48 hrs by SRB assay; settings: TK-10, 48 h; for TGI: read-out: pTGI
RXF 393 [8] = assay: Cytotoxicity against human RXF393 cells after 48 hrs by SRB assay; settings: RXF 393, 48 h; for TGI: read-out: pTGI (converted)
SK-OV-3 = assay: Cytotoxicity against human SKOV3 cells after 48 hrs by SRB assay; settings: SK-OV-3, 48 h; for TGI: read-out: pTGI
OVCAR-4 = assay: Cytotoxicity against human OVCAR4 cells after 48 hrs by SRB assay; settings: OVCAR-4, 48 h
Malme-3M = assay: Cytotoxicity against human MALME-3M cells after 48 hrs by SRB assay; settings: for TGI: read-out: pTGI
U-251 [9] = assay: Cytotoxicity against human U251 cells after 48 hrs by SRB assay; settings: U-251, 48 h; for TGI: read-out: pTGI
SNB-75 [10] = assay: Cytotoxicity against human SNB75 cells after 48 hrs by SRB assay; settings: SNB-75, 48 h; for TGI: read-out: pTGI (converted)
SF-539 [11] = assay: Cytotoxicity against human SF539 cells after 48 hrs by SRB assay; settings: SF-539, 48 h; for TGI: read-out: pTGI
SF-295 = assay: Cytotoxicity against human SF295 cells after 48 hrs by SRB assay; settings: SF-295, 48 h
SF-268 [12] = assay: Cytotoxicity against human SF268 cells after 48 hrs by SRB assay; settings: SF-268, 48 h
HOP-92 [13] = assay: Cytotoxicity against human HOP92 cells after 48 hrs by SRB assay; settings: HOP-92, 48 h
SR [14] = assay: Cytotoxicity against human SR cells after 48 hrs by SRB assay
K562 [15] = assay: Cytotoxicity against human K562 cells after 48 hrs by SRB assay; settings: K562, 48 h
RXF 393 [16] = assay: Cytotoxicity against human RXF393 cells assessed as cell growth at 10^-5 M after 48 hrs by SRB assay; settings: RXF 393, 48 h, read-out: Activity
786-0 = assay: Cytotoxicity against human 786-0 cells assessed as cell growth at 10^-5 M after 48 hrs by SRB assay; settings: 786-0, 48 h, read-out: Activity
SF-539 [17] = assay: Cytotoxicity against human SF539 cells assessed as cell growth at 10^-5 M after 48 hrs by SRB assay; settings: SF-539, 48 h, read-out: Activity

## Nc1c(C(=O)Nc2ccc(F)cc2)nnn1-c1cccc(C(F)(F)F)c1
MCF7
  growth at 10 µM: 82.5%
A498
  growth at 10 µM: 81.7%
RPMI-8226
  growth at 10 µM: 81.4%

## Nc1c(C(=O)NC2CCCC2)nnn1-c1cccc(C(F)(F)F)c1
A498
  growth at 10 µM: 89.1%
NCI-H522
  growth at 10 µM: 87%

## COc1ccc(NC(=O)c2nnn(-c3cccc(C(F)(F)F)c3)c2N)c(OC)c1
HOP-92 [1]
  growth at 10 µM: 77.3%
K562 [2]
  growth at 10 µM: 71.7%
HL-60(TB)
  growth at 10 µM: 78.4%

## Nc1c(C(=O)c2c[nH]c3ccccc23)nnn1-c1ccccc1
MDA-MB-468
  growth at 10 µM: 78.5%
MCF7
  growth at 10 µM: 73.7%

## Cc1c(C(=O)Nc2cccc(C(F)(F)F)c2)nnn1-c1ccc2noc(-c3ccccc3)c2c1
UO-31
  growth at 10 µM: 78.5%
K562 [2]
  growth at 10 µM: 89.8%

## Cc1c(C(=O)NCc2ccco2)nnn1-c1ccc2noc(-c3ccc(Cl)cc3)c2c1
MDA-MB-468
  growth at 10 µM: 68%
UO-31
  growth at 10 µM: 52%
A498
  growth at 10 µM: 56.2%
UACC-62
  growth at 10 µM: 64.2%
RPMI-8226
  growth at 10 µM: 65.3%

## CCc1c(C(=O)Nc2ccccc2Cl)nnn1-c1ccc2noc(-c3ccccc3)c2c1
PC-3
  growth at 10 µM: 60.6%
HOP-92 [1]
  growth at 10 µM: 58.4%
HOP-62
  growth at 10 µM: 74.2%
RPMI-8226
  growth at 10 µM: 76.2%

## CCc1c(C(=O)Nc2cccc(Cl)c2)nnn1-c1ccc2noc(-c3ccccc3)c2c1
MCF7
  growth at 10 µM: 81.7%
UO-31
  growth at 10 µM: 82.6%
SR [3]
  growth at 10 µM: 77.6%

## CCc1c(C(=O)Nc2ccc(Cl)cc2)nnn1-c1ccc2noc(-c3ccccc3)c2c1
UO-31
  growth at 10 µM: 67.8%
UACC-62
  growth at 10 µM: 83.6%
NCI-H522
  growth at 10 µM: 88.9%
SR [3]
  growth at 10 µM: 85.1%

## COc1ccccc1-n1nnc(C(=O)Nc2ncc(Cc3ccccc3)s2)c1C
UO-31
  growth at 10 µM: 73.3%
OVCAR-8
  growth at 10 µM: 68%
U-251 [4]
  growth at 10 µM: 75.6%
SNB-75 [5]
  growth at 10 µM: 53.9%
SF-268 [6]
  growth at 10 µM: 75.5%
HOP-62
  growth at 10 µM: 54.8%

## Cc1ccc(-n2nnc(C(=O)Nc3ncc(Cc4cccc(Cl)c4)s3)c2C)cc1
UO-31
  growth at 10 µM: 70.8%
UACC-62
  growth at 10 µM: 76.6%
[7]
  growth at 10 µM: 74.9%
RPMI-8226
  growth at 10 µM: 62.7%
CCRF-CEM
  growth at 10 µM: 63.3%

## Cc1ccccc1-n1nnc(C(=O)Nc2ccc(Cl)cc2Cl)c1N
T47D
  growth at 10 µM: 60.9%
SK-MEL-5
  growth at 10 µM: 55.9%
[7]
  growth at 10 µM: 56.7%
RPMI-8226
  growth at 10 µM: 59.6%

## Cc1ccc(-n2nnc(C(=O)NCc3ccccc3)c2N)cc1
SR [3]
  growth at 10 µM: 68.2%
MOLT-4
  growth at 10 µM: 75.8%

## COc1ccc(NC(=O)c2nnn(-c3ccc(C)cc3)c2N)cc1
PC-3
  growth at 10 µM: 74.3%
HOP-92 [1]
  growth at 10 µM: 69.4%

## Cc1ccc(-n2nnc(C(=O)Nc3cc(Cl)ccc3Cl)c2N)cc1
MDA-MB-231
  GI50: 6.17 µM
  TGI: > 100 µM
Hs-578T
  GI50: 4.47 µM
Hs-578T; read-out: pTGI
  TGI: > 100 µM
TK-10
  GI50: 5.89 µM
  TGI: > 100 µM
RXF 393 [8]
  GI50: 3.47 µM
  TGI: 50.1 µM
SK-OV-3
  GI50: 2.82 µM
  TGI: > 100 µM
OVCAR-4
  GI50: 1.62 µM
OVCAR-4; read-out: pTGI
  TGI: > 100 µM
Malme-3M
  GI50: 2.45 µM
  TGI: > 100 µM
U-251 [9]
  GI50: 6.03 µM
  TGI: > 100 µM
SNB-75 [10]
  GI50: 1.38 µM
  TGI: 6.03 µM
SF-539 [11]
  GI50: 4.27 µM
  TGI: > 100 µM
SF-295
  GI50: 5.01 µM
SF-295; read-out: pTGI
  TGI: > 100 µM
SF-268 [12]
  GI50: 5.5 µM
SF-268 [12]; read-out: pTGI
  TGI: > 100 µM
HOP-92 [13]
  GI50: 0.589 µM
HOP-92 [13]; read-out: pTGI (converted)
  TGI: 5.89 µM
SR [14]
  GI50: 2.51 µM
SR [14]; read-out: pTGI (converted)
  TGI: 60.3 µM
K562 [15]
  GI50: 7.76 µM
K562 [15]; read-out: pTGI
  TGI: > 100 µM
UO-31
  growth at 10 µM: -7.62%
RXF 393 [16]
  growth at 10 µM: -13.4%
786-0
  growth at 10 µM: 2.96%
SNB-75 [5]
  growth at 10 µM: 1.32%
HOP-92 [1]
  growth at 10 µM: -3.42%

## CCc1nnc(NC(=O)c2nnn(-c3ccc(C)cc3)c2N)s1
T47D
  growth at 10 µM: 77.4%
SNB-75 [5]
  growth at 10 µM: 76.2%
HOP-92 [1]
  growth at 10 µM: 71.5%

## Cc1cc(C)cc(-n2nnc(C(=O)NC(C)C)c2N)c1
MCF7
  growth at 10 µM: 83.3%
SF-539 [17]
  growth at 10 µM: 78.9%
SR [3]
  growth at 10 µM: 83.6%

## Cc1cccc(C)c1NC(=O)c1nnn(-c2ccc(F)cc2)c1N
A498
  growth at 10 µM: 78.7%
HOP-92 [1]
  growth at 10 µM: 76.8%
[7]
  growth at 10 µM: 75.9%
SR [3]
  growth at 10 µM: 66.7%
CCRF-CEM
  growth at 10 µM: 64%

## COc1ccc(NC(=O)c2nnn(-c3ccc(F)cc3)c2N)c(OC)c1
MDA-MB-231
  GI50: 6.46 µM
  TGI: > 100 µM
TK-10
  GI50: 30.2 µM
  TGI: > 100 µM
RXF 393 [8]
  GI50: 37.2 µM
  TGI: > 100 µM
SK-OV-3
  GI50: 13.8 µM
  TGI: > 100 µM
Malme-3M
  GI50: 12.9 µM
  TGI: > 100 µM
U-251 [9]
  GI50: 11.7 µM
  TGI: > 100 µM
SNB-75 [10]
  GI50: 3.89 µM
  TGI: > 100 µM
SF-539 [11]
  GI50: 17.8 µM
  TGI: > 100 µM
T47D
  growth at 10 µM: -2.61%
786-0
  growth at 10 µM: -1.64%
U-251 [4]
  growth at 10 µM: -9.89%
SNB-75 [5]
  growth at 10 µM: -27.3%
SF-539 [17]
  growth at 10 µM: -4.64%

## CCc1ccc(NC(=O)c2nnn(-c3ccc(OC)cc3)c2N)cc1
MDA-MB-468
  growth at 10 µM: 62.6%
SK-MEL-5
  growth at 10 µM: 56.3%
RPMI-8226
  growth at 10 µM: 60.9%
